The results in this text go back to US20230111310A1, “CARBOXYLIC ACID DERIVATIVE-SUBSTITUTED IMINO ARYL COMPOUND, PREPARATION METHOD THEREFOR, HERBICIDAL COMPOSITION AND USE THEREOF” (Qingdao Kingagroot Chemical Compound Co., Ltd., priority 2020, published 2023).

Common to all, as to test: Weeding effect in post-emergence stage
Type in all cases: in vivo

Assay [1] concerns Echinochloa crusgalli. To be noted: for Weeding effect in post-emergence stage, Echinochloa crusgalli (level): fresh weight control rate level; for Weeding effect in post-emergence stage, Echinochloa crusgalli: level of fresh weight growth control rate. In outline: (§1)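 Doses of 500, 250, 125, 60, 30, 15 and 7.5 g/ha, with methyl oleate synergist (1.5 liter/ha) and Tween 80 from acetone solution, applied by spray tower post-emergence (2–3 leaf stage). Weed control scored after 3 further greenhouse weeks, averaged over triplicates.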

Assay [2] has as its system Eleusine indica. Particulars: for Weeding effect in post-emergence stage, Eleusine indica (level): fresh weight control rate level; for Weeding effect in post-emergence stage, Eleusine indica: level of fresh weight growth control rate. In outline: as §1
For assay [3], the system named is Digitaria sanguinalis. Particulars: for Weeding effect in post-emergence stage, Digitaria sanguinalis (level): fresh weight control rate level; for Weeding effect in post-emergence stage, Digitaria sanguinalis: level of fresh weight growth control rate. In outline:
as §1

The test system of assay [4] is Abutilon theophrasti. Particulars: for Weeding effect in post-emergence stage, Abutilon theophrasti (level): fresh weight control rate level; for Weeding effect in post-emergence stage, Abutilon theophrasti: level of fresh weight growth control rate. Put shortly: as §1
Assay [5] has as its system Alopecurus japonicus. To be noted: for Weeding effect in post-emergence stage, Alopecurus japonicus (level): fresh weight control rate level; for Weeding effect in post-emergence stage, Alopecurus japonicus: level of fresh weight growth control rate. In outline: as §1
Assay [6] relates to Setaria viridis. To be noted: for Weeding effect in post-emergence stage, Setaria viridis (level): fresh weight control rate level; for Weeding effect in post-emergence stage, Setaria viridis: level of fresh weight growth control rate. In outline: as §1

Consider `C[C@@H](O/N=C/c1cc(-n2c(=O)cc(C(F)(F)F)n(C)c2=O)c(F)cc1Cl)C(N)=O` [499(R)], for which, in assay [1] (Dose 15 g/ha), the “Weeding effect in post-emergence stage, Echinochloa crusgalli (level)” value (“Weeding effect … Echinochloa crusgalli (level)” below) is on record as 5 (Level 5: growth control rate is above 85%). The “Weeding effect in post-emergence stage, Eleusine indica (level)” value (“Weeding effect … Eleusine indica (level)” below) in assay [2] (Dose 15 g/ha) is 5 (Level 5: growth control rate is above 85%). The “Weeding effect in post-emergence stage, Digitaria sanguinalis (level)” value (from here on “Weeding effect … Digitaria sanguinalis (level)”) in assay [3] (Dose 15 g/ha) is recorded as 5 (Level 5: growth control rate is above 85%). Further, the “Weeding effect in post-emergence stage, Abutilon theophrasti (level)” value (“Weeding effect … Abutilon theophrasti (level)” for short) in assay [4] (Dose 15 g/ha) is reported as 5 (Level 5: growth control rate is above 85%). Besides, the “Weeding effect in post-emergence stage, Alopecurus japonicus (level)” value (“Weeding effect … Alopecurus japonicus (level)” below) in assay [5] (Dose 15 g/ha) is reported as 5 (Level 5: growth control rate is above 85%). For the same compound, the “Weeding effect in post-emergence stage, Setaria viridis (level)” value (shortened to “Weeding effect … Setaria viridis (level)”) in assay [6] (Dose 15 g/ha) is 5 (Level 5: growth control rate is above 85%).
As for `C/C(Cl)=C/COC(=O)[C@@H](C)O/N=C/c1cc(-n2c(=O)cc(C(F)(F)F)n(C)c2=O)c(F)cc1Cl` [500(R)], the “Weeding effect … Echinochloa crusgalli (level)” value in assay [1] (Dose 15 g/ha) is listed as 5 (Level 5: growth control rate is above 85%). Besides, in assay [2] (Dose 15 g/ha), the “Weeding effect … Eleusine indica (level)” value is on record as 5 (Level 5: growth control rate is above 85%). In addition, the “Weeding effect … Digitaria sanguinalis (level)” value in assay [3] (Dose 15 g/ha) is given as 5 (Level 5: growth control rate is above 85%). Further, the “Weeding effect … Abutilon theophrasti (level)” value in assay [4] (Dose 15 g/ha) was 5 (Level 5: growth control rate is above 85%). In addition, the “Weeding effect … Alopecurus japonicus (level)” value in assay [5] (Dose 15 g/ha) is 5 (Level 5: growth control rate is above 85%). Moreover, in assay [6] (Dose 15 g/ha), the “Weeding effect … Setaria viridis (level)” value is reported as 5 (Level 5: growth control rate is above 85%).
Consider `C=C(Cl)COC(=O)[C@@H](C)O/N=C/c1cc(-n2c(=O)cc(C(F)(F)F)n(C)c2=O)c(F)cc1Cl` [501(R)], for which, in assay [1] (Dose 15 g/ha), the “Weeding effect … Echinochloa crusgalli (level)” value is on record as 5 (Level 5: growth control rate is above 85%). The “Weeding effect … Eleusine indica (level)” value in assay [2] (Dose 15 g/ha) is listed as 5 (Level 5: growth control rate is above 85%). Further, the “Weeding effect … Digitaria sanguinalis (level)” value in assay [3] (Dose 15 g/ha) was 5 (Level 5: growth control rate is above 85%). In addition, the “Weeding effect … Abutilon theophrasti (level)” value in assay [4] (Dose 15 g/ha) is reported as 5 (Level 5: growth control rate is above 85%). In addition, the “Weeding effect … Alopecurus japonicus (level)” value in assay [5] (Dose 15 g/ha) is given as 5 (Level 5: growth control rate is above 85%). The “Weeding effect … Setaria viridis (level)” value in assay [6] (Dose 15 g/ha) is 5 (Level 5: growth control rate is above 85%).
As to `CCN(CC)C(=O)[C@@H](C)O/N=C/c1cc(-n2c(=O)cc(C(F)(F)F)n(C)c2=O)c(F)cc1Cl` [502(R)], in assay [1] (Dose 15 g/ha), the “Weeding effect … Echinochloa crusgalli (level)” value is 5 (Level 5: growth control rate is above 85%). Further, in assay [2] (Dose 15 g/ha), the “Weeding effect … Eleusine indica (level)” value was 5 (Level 5: growth control rate is above 85%). In addition, the “Weeding effect … Digitaria sanguinalis (level)” value in assay [3] (Dose 15 g/ha) is recorded as 5 (Level 5: growth control rate is above 85%). For the same compound, the “Weeding effect … Abutilon theophrasti (level)” value in assay [4] (Dose 15 g/ha) is 5 (Level 5: growth control rate is above 85%). For the same compound, in assay [5] (Dose 15 g/ha), the “Weeding effect … Alopecurus japonicus (level)” value was 5 (Level 5: growth control rate is above 85%). Further, the “Weeding effect … Setaria viridis (level)” value in assay [6] (Dose 15 g/ha) is 5 (Level 5: growth control rate is above 85%).
With `C[C@@H](O/N=C/c1cc(-n2c(=O)cc(C(F)(F)F)n(C)c2=O)c(F)cc1Cl)C(=O)NS(=O)(=O)CCl` [503(R)], in assay [1] (Dose 15 g/ha), the “Weeding effect … Echinochloa crusgalli (level)” value is given as 5 (Level 5: growth control rate is above 85%). The “Weeding effect … Eleusine indica (level)” value in assay [2] (Dose 15 g/ha) was 5 (Level 5: growth control rate is above 85%). For the same compound, the “Weeding effect … Digitaria sanguinalis (level)” value in assay [3] (Dose 15 g/ha) is on record as 5 (Level 5: growth control rate is above 85%). For the same compound, the “Weeding effect … Abutilon theophrasti (level)” value in assay [4] (Dose 15 g/ha) is given as 5 (Level 5: growth control rate is above 85%). The “Weeding effect … Alopecurus japonicus (level)” value in assay [5] (Dose 15 g/ha) is 5 (Level 5: growth control rate is above 85%). Moreover, the “Weeding effect … Setaria viridis (level)” value in assay [6] (Dose 15 g/ha) was 5 (Level 5: growth control rate is above 85%).
Take `COC(=O)C(C)ON=Cc1nc(-n2c(=O)cc(C(F)(F)F)n(C)c2=O)c(F)cc1Cl` [504(R)]: the “Weeding effect … Echinochloa crusgalli (level)” value in assay [1] (Dose 15 g/ha) is given as 5 (Level 5: growth control rate is above 85%). In addition, the “Weeding effect … Eleusine indica (level)” value in assay [2] (Dose 15 g/ha) is listed as 5 (Level 5: growth control rate is above 85%). Also, the “Weeding effect … Digitaria sanguinalis (level)” value in assay [3] (Dose 15 g/ha) was 5 (Level 5: growth control rate is above 85%). In addition, the “Weeding effect … Abutilon theophrasti (level)” value in assay [4] (Dose 15 g/ha) was 5 (Level 5: growth control rate is above 85%). In assay [5] (Dose 15 g/ha), the “Weeding effect … Alopecurus japonicus (level)” value is 5 (Level 5: growth control rate is above 85%). Besides, the “Weeding effect … Setaria viridis (level)” value in assay [6] (Dose 15 g/ha) is on record as 5 (Level 5: growth control rate is above 85%).
As to `COC(=O)[C@@H](C)S/N=C/c1cc(-n2c(=O)cc(C(F)(F)F)n(C)c2=O)c(F)cc1Cl` [730(R)], the “Weeding effect … Echinochloa crusgalli (level)” value in assay [1] (Dose 15 g/ha) was 5 (Level 5: growth control rate is above 85%). Moreover, the “Weeding effect … Eleusine indica (level)” value in assay [2] (Dose 15 g/ha) was 5 (Level 5: growth control rate is above 85%). Moreover, the “Weeding effect … Digitaria sanguinalis (level)” value in assay [3] (Dose 15 g/ha) was 5 (Level 5: growth control rate is above 85%). For the same compound, in assay [4] (Dose 15 g/ha), the “Weeding effect … Abutilon theophrasti (level)” value is recorded as 5 (Level 5: growth control rate is above 85%). Also, the “Weeding effect … Alopecurus japonicus (level)” value in assay [5] (Dose 15 g/ha) is 5 (Level 5: growth control rate is above 85%). Also, the “Weeding effect … Setaria viridis (level)” value in assay [6] (Dose 15 g/ha) is listed as 5 (Level 5: growth control rate is above 85%).
For the compound `COC(=O)[C@@H](C)N/N=C/c1cc(-n2c(=O)cc(C(F)(F)F)n(C)c2=O)c(F)cc1Cl` [919(R)], the “Weeding effect … Echinochloa crusgalli (level)” value in assay [1] (Dose 30 g/ha) was 5 (Level 5: growth control rate is above 85%). The “Weeding effect … Eleusine indica (level)” value in assay [2] (Dose 30 g/ha) is 5 (Level 5: growth control rate is above 85%). Moreover, the “Weeding effect … Digitaria sanguinalis (level)” value in assay [3] (Dose 30 g/ha) is 5 (Level 5: growth control rate is above 85%). Moreover, in assay [4] (Dose 30 g/ha), the “Weeding effect … Abutilon theophrasti (level)” value was 5 (Level 5: growth control rate is above 85%). The “Weeding effect … Alopecurus japonicus (level)” value in assay [5] (Dose 30 g/ha) is listed as 5 (Level 5: growth control rate is above 85%). For the same compound, the “Weeding effect … Setaria viridis (level)” value in assay [6] (Dose 30 g/ha) was 5 (Level 5: growth control rate is above 85%).
Take `CC(C)=NOC(=O)C(C)O/N=C/c1cc(-n2c(=O)n(C)c(=S)n(C)c2=O)c(F)cc1Cl` (stereo not drawn) [Compound 20]: the “Weeding effect in post-emergence stage, Echinochloa crusgalli” value in assay [1] (Dose 15 g/ha) is given as 5 (Level 5: growth control rate is above 85%). In assay [2] (Dose 15 g/ha), the “Weeding effect in post-emergence stage, Eleusine indica” value was 5 (Level 5: growth control rate is above 85%). Besides, in assay [3] (Dose 15 g/ha), the “Weeding effect in post-emergence stage, Digitaria sanguinalis” value is 5 (Level 5: growth control rate is above 85%). Besides, the “Weeding effect in post-emergence stage, Abutilon theophrasti” value in assay [4] (Dose 15 g/ha) is recorded as 5 (Level 5: growth control rate is above 85%). Also, the “Weeding effect in post-emergence stage, Alopecurus japonicus” value in assay [5] (Dose 15 g/ha) is on record as 5 (Level 5: growth control rate is above 85%). The “Weeding effect in post-emergence stage, Setaria viridis” value in assay [6] (Dose 15 g/ha) was 5 (Level 5: growth control rate is above 85%).
`CC(O/N=C/c1cc(-n2c(=O)n(C)c(=S)n(C)c2=O)c(F)cc1Cl)C(=O)OCC1CCCO1` (stereo not drawn) [Compound 24]: the “Weeding effect in post-emergence stage, Echinochloa crusgalli” value in assay [1] (Dose 15 g/ha) is on record as 5 (Level 5: growth control rate is above 85%). Moreover, the “Weeding effect in post-emergence stage, Eleusine indica” value in assay [2] (Dose 15 g/ha) is listed as 5 (Level 5: growth control rate is above 85%). The “Weeding effect in post-emergence stage, Digitaria sanguinalis” value in assay [3] (Dose 15 g/ha) was 5 (Level 5: growth control rate is above 85%). The “Weeding effect in post-emergence stage, Abutilon theophrasti” value in assay [4] (Dose 15 g/ha) is recorded as 5 (Level 5: growth control rate is above 85%). Also, the “Weeding effect in post-emergence stage, Alopecurus japonicus” value in assay [5] (Dose 15 g/ha) is recorded as 5 (Level 5: growth control rate is above 85%). In assay [6] (Dose 15 g/ha), the “Weeding effect in post-emergence stage, Setaria viridis” value was 5 (Level 5: growth control rate is above 85%).
